# Laboratory results: US6245758A, “Methods of use for peroxynitrite decomposition catalysts, pharmaceutical compositions therefor” (priority 1996, dated 2001)
# Read-outs that look alike come from different tables or passages of the source.
# Columns and labels:
# [1] = system: CuZnSOD; test: Inactivation of CuZnSOD by peroxynitrite (stopped flow superoxide dismutase activity)
# Method: Stock solutions of bovine liver CuZnSOD (DDI Pharmaceuticals Inc., Mountain View CA) were prepared by dissolving -1.0 mg of enzyme in 10 mL of 50 mM potassium phosphate buffer at a pH=7.4. […] All kobs were the average of triplicate runs using a stopped flow spectrophotometer manufactured by Kinetic Instruments Inc. (Ann Arbor, Mich.) and was interfaced to a MAC IICX personal computer.
# Inactivation of CuZn SOD by peroxynitrite.
# Inactivation of peroxynitrite was performed by aloquating 1.0 mL of stock CuZn SOD solution into 50 mM potassium phosphate buffer pH=7.4 such that a final assay volume of 10 mL is achieved after addition of peroxynitrite and EDTA solutions. To these assay solution was added various amounts of peroxynitrite (25 mM stock solution) such that the final concentration of peroxynitrite in the assay varied from 0, 25, 50, 75 and 100 uM. After the addition of peroxynitrite, 100 uL of a 2.5 mM stock EDTA solution was added to each assay solution such that the final concentration of EDTA was 250 uM. Each solution was then assayed by stopped flow analysis for superoxide dismutase activity.
# [2] = system: RAW 264.7 cells; test: Cell protection assay, Alamar Blue viability after peroxynitrite challenge; type: cell-based, murine
# Method: FIG. 8: Comparison of Ni and Fe Catalyst Protection of RAW Cells from PN(peroxynitrite)-mediated Injury. RAW 264.7 cells were plated at approximately 2×10^5 per well of a 96-well plate. […] Each condition represents the mean of 4 wells ±sem.
# FIG. 9: Protection from PN-mediated RAW Cell Injury by Fe Catalysts. Cells were treated with 500 micromolar PN in the presence or the absence of the following catalysts: FeTMPyP, FeTMPS, FeTPPS. Cell viability was monitored as described in the text and figure legends 1, 2 and 3. Values represent the mean of 4 determinations ±sem.
# (§1) Protocol for Cell Protection Assays using Peroxynitrite Decomposition Catalysts: A cell viability assay was established to rapidly assess the efficacy of peroxynitrite(PN) catalysts in protecting cells from PN25 mediated injury and death. The peroxynitrite challenge consisted of a pulse of synthetic PN added exogenously to cells. In order to better assess the efficacy of PN catalysts in protecting cells from PN-mediated damage, a quantity of peroxynitrite(in 50 mM NaOH) determined to cause maximal injury(100%) was added as an exogenous pulse to each well of cells in the presence or absence of catalyst. The NaOH vehicle was not toxic by itself.
# (§2) Cells(RAW 264.7 cells or P815 mastocytoma cells; American Type Culture Collection, Rockville, Md.) were plated to confluence on 96-well tissue culture plates. Each well is washed twice with Dulbecco's phosphate buffered saline(DPBS; GIBCO BRL, Grand Island, N.Y.) to remove protein and other serum components which might react with the exogenous peroxynitrite. To each well is then added 200 μl of DPBS. PN is next placed into separate wells at increasing concentrations and cell viability monitored. The dose at which maximal cell death is attained is then utilized for the catalyst protection assessment.
# Phosphate-buffered saline (200 uL) containing increasing concentrations of catalyst is next placed into individual wells of cells. The maximal dose of PN is subsequently administered to all wells of cells. After 15 minutes, the medium is removed from each well and the cells are either allowed to recover overnight in Earles minimum essential medium without phenol red and supplemented with 10% fetal bovine serum or alternatively the plate of cells is assayed that day for mitochondrial integrity using the Alamar Blue viability assay(Alamar Biosciences, Inc.; Sacramento, Calif.). In either case, cells are incubated at 37° C. in 5% CO2.
# Cell injury is measured as follows. Briefly, 10% Alamar Blue(v/v) in Earles MEM with 10% FBS is added to each well of cells for 1-2h. Cell metabolism of the dye generates a fluorescent product which is directly related to the number of viable cells. Moreover, the production of the fluorescent metabolite is linear for over 2 h. The amount of fluorescent product in 100 μl of conditioned medium from each well of cells is then measured with an IDEXX fluorescent plate reader (gain setting of 1%) at an emission wavelength of 575 nm after exciting at 545 nm. Viability is either given as absolute fluorescent units or as a percent of the value obtained for untreated cells(100%).
# [3] = system: carrageenan-induced paw edema; test: Carrageenan-induced paw edema; type: in vivo, rat; settings: 30 mg/kg i.v.
# Source text: Carrageenan-induced paw edema. The effects of peroxynitrite catalysts in vivo were initially tested on the carrageenan-induced paw edema. The choice of using this in vivo model of inflammation was based on the knowledge that 1) the inflammatory response is blocked by NOS inhibitors and 2) by superoxide dismutase (SOD). This indicates the participation of both NO and of O2-. Male Sprague Dawley rats were purchased from Harlan Sprague-Dawley (Indianapolis, Ind.). Male Sprague Dawley rats (175-200 g) received a subplantar injection in the right hind paw of carrageenan (0.1 ml of a 1% suspension in 0.85% saline). Paw volume was measured by a plethysmometer immediately before the injection of carrageenan and then at hourly intervals from 1 to 6 h. Edema was expressed as the increase in paw volume (in ml) measured after carrageenan injection compared to the pre-injection value for individual animals.
# [4] = system: rat jejunum; test: Intestinal vascular permeability (radiolabelled albumin leakage) after endotoxin (LPS); type: in vivo; settings: 30 mg/kg, i.v, 3 h after LPS; determined 1 h later
# Method: FIG. 10 . Effects of FeTMPS, FeTMPyP or ZnTMPyP (30 mg/kg, i.v bolus) administered 3 h after challenge with E. coli lipopolysaccharide (LPS, 3 mg/kg, i.v bolus) on the increase in leakage of radio-labelled albumin (plasma extravasation, μl/g tissue) observed 1 h later (e.g 4 h after LPS challenge) in the rat jejunum. Results are shown as mean±s.e.m of 4-8 rats.
# Intestinal vascular permeability was determined as the leakage into the jejunal tissue of [^125 I]-labelled bovine serum albumin ([^125 ]-BSA) administered intravenously (0.5 ml; 0.5 μCi) together with either LPS (3 mg/kg, serotype O111:B4) or isotonic saline. At 4 h after LPS administration, segments of jejunal tissue were ligated and removed. The intestinal tissues were rapidly washed, blotted dry and weighed. Blood (0.5 ml) was collected into tubes containing tri-sodium citrate (0.318% final concentration) and plasma prepared by centrifugation (10,000 g×10 min). The {^125 I]-BSA content in segments of whole tissue and in aliquots of plasma (100 μl) was determined in a gamma counter. The total content of plasma in the intestinal tissues was expressed as μl/g tissue. Changes in intravascular volume in the intestinal tissue was determined in an additional group of rats by administering ([^125 I]-BSA) intravenously 2 min before removal of the jejunum. The tissue and plasma content of radiolabel was determined and intravascular volume expressed as μl/g tissue. This value was substracted from that obtained in the plasma leakage studies to obtain a measure of the intestinal plasma albumin leakage. After LPS administration (4 h), there was a significant (P<0.01) increase in the plasma leakage (from 77±10 to 224±18 μl/g tissue, n=8).
# [5] = Stopped-flow kinetic analysis of catalytic decomposition of peroxynitrite by metal complexes; settings: pH = 7.4, 22° C.
# Method: To screen metal complexes for peroxynitrite decomposition catalytic activity of the present invention, peroxynitrite is prepared and isolated as its sodium salt by the reaction of acidic hydrogen peroxide with sodium nitrite followed by rapid quenching with NaOH as set out by Halfpenny and Robinson, in J. Chem. So., 1952, 928-938. Peroxynitrite has an absorbance maximum at 302 nm with an extinction coefficient of 1670 M^-1 cm^-1. Therefore, it is possible to directly observe the decomposition of peroxynitrite by stop-flow spectrophotometric analysis by monitoring the decomposition of the absorbance at 302 nm. That is, such observation of the decomposition of peroxynitrite at a rate accelerated over the natural decomposition rate with the addition of the metal complex identifies a compound of the present invention.
# Kinetic measurements were made on an OLIS Rapid Scanning Stopped-Flow Spectrometer (On-Line Instrument Systems Inc., Bogart, Ga.)) using the OLISRSM-1000 Operating system for data acquisition and manipulation.
# Thus, in a typical experiment the natural background decomposition rate of sodium peroxynitrite was determined as follows. A 24 mM stock solution of sodium peroxynitrite in 50 mM NaOH is load into the small volume syringe and 100 mM potassium phosphate pH=7.4 is charged into the large volume syringe of the stopped-flow spectrophotometer. All stopped -flow measurements were made at 22 ° C. Injection of the solutions into the sample compartment results in ~25 fold dilution of the stock sodium peroxynitrite. […] To test for catalytic peroxynitrite decomposition activity, the metal complex was dissolved in 100 mM potassium phosphate buffer pH=7.4 and loaded into the large syringe and the decomposition of peroxynitrite was monitored as described above. The catalytic rate constant (kcat M-1 sec^-1) for the complexes tested was determined by varying the complex concentration and plotting kobs vs [complex] Table 1. The kobs were obtained from averages of three stopped flow analysis at each catalyst concentration.
# [6] = Natural background decomposition of peroxynitrite; type: physicochemical; settings: 22 ° C, 100 mM potassium phosphate pH=7.4
# Method: Thus, in a typical experiment the natural background decomposition rate of sodium peroxynitrite was determined as follows. A 24 mM stock solution of sodium peroxynitrite in 50 mM NaOH is load into the small volume syringe and 100 mM potassium phosphate pH=7.4 is charged into the large volume syringe of the stopped-flow spectrophotometer. All stopped -flow measurements were made at 22 ° C. Injection of the solutions into the sample compartment results in ~25 fold dilution of the stock sodium peroxynitrite. […] To test for catalytic peroxynitrite decomposition activity, the metal complex was dissolved in 100 mM potassium phosphate buffer pH=7.4 and loaded into the large syringe and the decomposition of peroxynitrite was monitored as described above. The catalytic rate constant (kcat M-1 sec^-1) for the complexes tested was determined by varying the complex concentration and plotting kobs vs [complex] […] The kobs were obtained from averages of three stopped flow analysis at each catalyst concentration.
# [7] = system: RAW and P815 cells; test: Comparison of increasing PN doses on RAW and P815 cells; type: cell-based, murine; settings: data not shown
# Method: as §1
# as §2, with “To each well is then added 200 μl of DPBS.” left out, “The dose at which maximal cell death is attained is then utilized for the catalyst protection assessment.” left out
# Cell injury is measured as follows. […] The amount of fluorescent product in 100 μl of conditioned medium from each well of cells is then measured with an IDEXX fluorescent plate reader (gain setting of 1%) at an emission wavelength of 575 nm after exciting at 545 nm. […]
# [8] = system: human dermal microvascular endothelial cells (HDME cells); test: Endothelial cell injury assay (51Cr release), authentic peroxynitrite; type: cell-based; settings: 45 min, peroxynitrite 0-800 uM
# Method: FIG. 5: Peroxynitrite-mediated human microvascular endothelial cell injury. Authentic peroxynitrite was overlaid directly onto to ^51 Cr-labeled HMDE cells grown in 96-well cell culture plates. After 45 min the amount of specific cell injury was determined and correlated to peroxynitrite concentration by least squares regression line. Values represent the average of three replicates +/-SEM.
# FIG. 6: Peroxynitrite catalysts, Fe(TMPyP) (triangle) and Ni(II)dienoN4)PF6 (circle) were added to HDME cells in the cell injury assay immediately before the addition of authentic peroxynitrite. After 45 min, the amount of specific cell injury was assessed by the amount of radiolabel released into the medium. Values represent the average of three replicas +/-SEM. *p<0.01 vs. 0 uM control by Dunnett's t Test.
# […]: Human recombinant tumor necrosis factor-alpha (TNF-a) was obtained from Genzyme Corporation, Cambridge, MA. Human recombinant complement C5a and L-arginine (L-arg) was purchased from Sigma Chemical Company, St. Louis, Mo. Authentic peroxynitrite in 50 mM NaOH was prepared as described above. […]
# Endothelial Cell Injury Assays: The cytotoxic effects of stimulated neutrophils or peroxynitrite on endothelial cells was determined using a ^51 Cr-release assay as described by Moldow (Moldow et. al. Methods Enzymol., 105, 378-385, [1984]). […]
# [9] = Beckman et al. 1990, cited from earlier work
structure (smiles),measurement,setting,value
O=C(O)CN(CCN(CC(=O)O)CC(=O)O)CC(=O)O [EDTA],CuZnSOD activity in control reaction,[1]; 250 uM EDTA alone,no decrease in CuZnSOD activity
"C[n+]1ccc(-c2c3nc(c(-c4cc[n+](C)cc4)c4ccc([nH]4)c(-c4cc[n+](C)cc4)c4nc(c(-c5cc[n+](C)cc5)c5ccc2[nH]5)C=C4)C=C3)cc1.[Zn+2] [ZnTMPyP, reference compound]",protection of cells from PN-mediated injury,"[2]; PN 500 micromolar, RAW cells, FIG. 9 (H2 TMPyP and ZnTMPyP: data not shown)",relatively ineffective
same,inhibition of edema formation,[3],failed to inhibit edema formation
same,radiolabelled albumin leakage,[4],did not inhibit radiolabelled albumin leakage
same,"kcat, catalytic rate constant for the decomposition of sodium peroxynitrite",[5],Inactive
"O=NOO [peroxynitrite, sodium peroxynitrite]",kobs of decomposition of sodium peroxynitrite,[6],1.39×10^-1±0.15 sec^-1
same,t1/2 of decomposition of sodium peroxynitrite,[6],5.2 see
same,decrease in cell viability caused by PN,"[2]; RAW 264.7, PN dose of FIG. 8 experiment",50%
same,differential susceptibility of RAW and P815 cells to peroxynitrite-mediated injury,[7],no evidence for a differential susceptibility to peroxynitrite-mediated injury
same,inactivation of CuZnSOD,[1]; peroxynitrite 0-100 uM,inactivates CuZnSOD enzyme in a concentration dependant manner
same,endothelial cell injury by peroxynitrite,[8],dose dependent increase in cell injury
same,t1/2 of decomposition of sodium peroxynitrite,"[9]; 37° C, pH=7.4",1.9 s
same,observed rate for the decomposition of peroxynitrite,"[9]; pH 7.4, 37° C",3.6×10^-1 sec-i
